Laboratory results as given in patent publication US6511827B1 (Merck & Co., Inc., priority 1997, dated 2003).

How the values were obtained:
galanin receptors = conditions: hypothalamus, ventral hippocampus, basal forebrain, spinal cord, pancreas and pituitary; cited from earlier work
human GALR3 = experiment: Specific binding of ^125I-galanin radioligands to membranes of COS-7 cells transfected with GALR3 clones, as a function of membrane protein
Protocol: Mammalian COS-7 cells were transfected by electroporation. COS-7 cells (1×10^7) were suspended in 0.85 ml of Ringers' buffer and […] of the GALR3-2 or GALR3—3 expression plasmid was added to a 0.4 mm electroporation cuvette (Bio-Rad, Hercules, Calif.). Current was applied ([…], 260 V) using a Bio-Rad Electroporator device and the cells were transferred to a T-180 flask (Corning). Expression was allowed to proceed for 72 hrs.
Membranes were prepared from transfected cells following dissociation in enzyme-free dissociation solution (Specialty Media, Lavallette, N.J.) by disruption in a Dounce homogenizer in ice-cold membrane buffer (10 mM Tris, pH 7.4, 10 mM PMSF, […], and […]). After a low speed (1100×g for 10 min. at 4° C.) and a high speed centrifugation (38,700×g for 15 min. at 4° C.), membranes were resuspended in buffer and protein concentration determined (Bio-Rad assay kit). […] Reactions were initiated by the addition of membranes and the incubation was allowed to proceed at room temperature for 1 hour. […] Titration of membrane protein from 1 to 50 μg was conducted. […] Incubations were terminated by rapid filtration through GF/C filters which had been presoaked with 0.1% polyethylamine using a TOMTEC (Orange, Conn.) cell harvester. The results were analyzed using the Prism software package (GraphPad, San Diego, Calif.).

Substance	Kd (galanin receptors) [nM]	Specific binding of radioligand (human GALR3; Clone GALR3-3, membrane protein 5 μg) [cpm]	Specific binding of radioligand (human GALR3; Clone GALR3-3, membrane protein 10 μg) [cpm]	Specific binding of radioligand (human GALR3; Clone GALR3-3, membrane protein 20 μg) [cpm]	Specific binding of radioligand (human GALR3; Clone GALR3-3, membrane protein 50 μg) [cpm]
^125I-galanin	~1	–	–	–	–
^125I-human galanin	–	211	407	886	2061
